US20230012368A1 (Hoffmann-La Roche Inc., priority 2018, published 2023)
Where a name gives a salt, the structure may show the parent alone.

System: Acinetobacter baumannii ATCC 17978
Experiment: Antimicrobial susceptibility testing: 90% growth inhibitory concentration (IC90) determination
Type: cell-based
Settings: Acinetobacter baumannii, ATCC17978, 16 h, 90% growth inhibitory concentration; Acinetobacter baumannii ATCC17978; Iso-Sensitest broth, OD 600 nm over 16h; read-out: ATCC17978 IC90
Procedure, shortened: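 Compounds serially twofold diluted (e.g. 50 to 0.097 μM final) in Iso-Sensitest broth, inoculated at ~5×10^(5) CFU/ml, incubated at 35±2° C. OD600 read every 20 minutes over 16h. IC90 taken as concentration inhibiting 90% of growth during logarithmic phase.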

Compound | IC90 [nM]
CCc1cc(Nc2nccn3c(-c4ccc(OC)c(F)c4F)cnc23)ccc1C(=O)NC[C@H](C)N [Example 522, (S)-N-(2-aminopropyl)-4-((3-(2,3-difluoro-4-methoxyphenyl)imidazo[1,2-a]pyrazin-8-yl)amino)-2-ethylbenzamide hydrochloride] | 260
CCc1cc(Nc2nccn3c(-c4ccc(OC)c(F)c4F)cnc23)ccc1C(=O)NCC(N)CC (stereo not drawn) [Example 523, N-(2-aminobutyl)-4-((3-(2,3-difluoro-4-methoxyphenyl)imidazo[1,2-a]pyrazin-8-yl)amino)-2-ethylbenzamide hydrochloride] | 250
CCc1cc(Nc2nccn3c(-c4ccc(OC)c(F)c4F)cnc23)ccc1C(=O)NCC(C)(C)N [Example 524, N-(2-amino-2-methylpropyl)-4-((3-(2,3-difluoro-4-methoxyphenyl)imidazo[1,2-a]pyrazin-8-yl)amino)-2-ethylbenzamide hydrochloride] | 600
CCc1cc(Nc2nccn3c(-c4ccc(OC)c(F)c4F)cnc23)ccc1C(=O)NCC(N)CO (stereo not drawn) [Example 525, N-(2-amino-3-hydroxypropyl)-4-((3-(2,3-difluoro-4-methoxyphenyl)imidazo[1,2-a]pyrazin-8-yl)amino)-2-ethylbenzamide hydrochloride] | 350
CCc1cc(Nc2nccn3c(-c4ccc(OC)c(F)c4F)cnc23)ccc1C(=O)NCC1(F)CNC1 [Example 526, 4-((3-(2,3-difluoro-4-methoxyphenyl)imidazo[1,2-a]pyrazin-8-yl)amino)-2-ethyl-N-((3-fluoroazetidin-3-yl)methyl)benzamide hydrochloride] | 210
CCc1cc(Nc2nccn3c(-c4ccc(OC)c(F)c4F)cnc23)ccc1C(=O)NCC1CCCN1 (stereo not drawn) [Example 527, 4-((3-(2,3-difluoro-4-methoxyphenyl)imidazo[1,2-a]pyrazin-8-yl)amino)-2-ethyl-N-(pyrrolidin-2-ylmethyl)benzamide hydrochloride] | 480
CCc1cc(Nc2nccn3c(-c4ccc(OC)c(F)c4F)cnc23)ccc1C(=O)NCC1(O)CCNC1 (stereo not drawn) [Example 528, 4-((3-(2,3-difluoro-4-methoxyphenyl)imidazo[1,2-a]pyrazin-8-yl)amino)-2-ethyl-N-((3-hydroxypyrrolidin-3-yl)methyl)benzamide hydrochloride] | 250
CCc1cc(Nc2nccn3c(-c4ccc(OC)c(F)c4F)cnc23)ccc1C(=O)NC[C@@H]1CCNC1 [Example 529, (R)-4-((3-(2,3-difluoro-4-methoxyphenyl)imidazo[1,2-a]pyrazin-8-yl)amino)-2-ethyl-N-(pyrrolidin-3-ylmethyl)benzamide hydrochloride] | 110
CCc1cc(Nc2nccn3c(-c4ccc(OC)c(F)c4F)cnc23)ccc1C(=O)NC[C@H]1CCNC1 [Example 530, (S)-4-((3-(2,3-difluoro-4-methoxyphenyl)imidazo[1,2-a]pyrazin-8-yl)amino)-2-ethyl-N-(pyrrolidin-3-ylmethyl)benzamide hydrochloride] | 110
CCc1cc(Nc2nccn3c(-c4ccc(OC)c(F)c4F)cnc23)ccc1C(=O)NC[C@@H]1CNC[C@@H]1O [Example 531, 4-((3-(2,3-difluoro-4-methoxyphenyl)imidazo[1,2-a]pyrazin-8-yl)amino)-2-ethyl-N-(((3S,4R)-4-hydroxypyrrolidin-3-yl)methyl)benzamide hydrochloride] | 150
CCc1cc(Nc2nccn3c(-c4ccc(OC)c(F)c4F)cnc23)ccc1C(=O)NCC1CN(C(=O)CN)C1 [Example 532, N-[[1-(2-aminoacetyl)azetidin-3-yl]methyl]-4-[[3-(2,3-difluoro-4-methoxy-phenyl)imidazo[1,2-a]pyrazin-8-yl]amino]-2-ethyl-benzamide; formic acid] | 61
CCc1cc(Nc2nccn3c(-c4ccc(OC)c(F)c4F)cnc23)ccc1C(=O)NCCCCCc1nnc2ccccn12 [Example 533, N-(5-([1,2,4]triazolo[4,3-a]pyridin-3-yl)pentyl)-4-((3-(2,3-difluoro-4-methoxyphenyl)imidazo[1,2-a]pyrazin-8-yl)amino)-2-ethylbenzamide] | 100
